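A five-concentration, 48-hour dose response in 96-well plates underlies each endpoint, interpolated linearly between surrounding concentrations. GI50 is the concentration that inhibits growth by half.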 Calls of active or inactive are those of the source. Rule as the data show it: active = GI50 up to about 1.1 µM and inactive = higher.
Experiments:
Test in all cases: NCI tumour cell line growth inhibition, 48 h
[1] = system: CCRF-CEM
[2] = system: SF-539
[3] = system: HOP-62
[4] = system: HCT-116
[5] = system: TK-10
[6] = system: CAKI-1
[7] = system: OVCAR-5
[8] = system: M14
[9] = system: SK-MEL-2
[10] = system: SK-MEL-5
[11] = system: K562
[12] = system: HL-60
[13] = system: SNB-75
[14] = system: SF-268
[15] = system: OVCAR-8
[16] = system: SK-MEL-28
[17] = system: MDA-N
[18] = system: DU-145
[19] = system: NCI-H23

Row | SMILES | GI50 [1] | GI50 [2] | GI50 [3] | GI50 [4] | GI50 [5] | GI50 [6] | GI50 [7] | GI50 [8] | GI50 [9] | GI50 [10] | GI50 [11] | GI50 [12] | GI50 [13] | GI50 [14] | GI50 [15] | GI50 [16] | GI50 [17] | GI50 [18] | GI50 [19]
1 | COc1ccc(-c2c(C#N)c(-c3ccc(C)cc3)n(NS(=O)(=O)c3ccccc3)c(=O)c2C#N)cc1 | 23 µM (inactive) | 36.6 µM (inactive) | 51.3 µM (inactive) | 42.6 µM (inactive) | 79.8 µM (inactive) | 74.1 µM (inactive) | > 100 µM (inactive) | 48.6 µM (inactive) | 50.8 µM (inactive) | 19.5 µM (inactive) | 60.4 µM (inactive) | 19 µM (inactive) | > 100 µM (inactive) | 80.4 µM (inactive) | 58.1 µM (inactive) | 48.1 µM (inactive) | 70.8 µM (inactive) | – | –
2 | O=C1OCCC12CN(Cc1ccccc1)N=N2 (stereo unspecified) | – | > 100 µM (inactive) | > 100 µM (inactive) | > 100 µM (inactive) | > 100 µM (inactive) | 58.7 µM (inactive) | > 100 µM (inactive) | > 100 µM (inactive) | > 100 µM (inactive) | > 100 µM (inactive) | > 100 µM (inactive) | – | – | > 100 µM (inactive) | > 100 µM (inactive) | > 100 µM (inactive) | > 100 µM (inactive) | 87.7 µM (inactive) | > 100 µM (inactive)
3 | CC1CNC(NS(=O)(=O)c2cc(C(=O)Nc3ccccc3)c(Cl)cc2S)=NN1 (stereo unspecified) | 32.8 µM (inactive) | 38.4 µM (inactive) | 43.9 µM (inactive) | 30.5 µM (inactive) | > 100 µM (inactive) | > 100 µM (inactive) | 27.2 µM (inactive) | 26.4 µM (inactive) | 22.2 µM (inactive) | 23.2 µM (inactive) | 35.2 µM (inactive) | 66.2 µM (inactive) | – | 26.1 µM (inactive) | 30.8 µM (inactive) | 45.3 µM (inactive) | 24.9 µM (inactive) | > 100 µM (inactive) | 44.1 µM (inactive)
4 | CCNc1ccc2c(c1)C(=O)N(OS(C)(=O)=O)C2=O | 32.1 µM (inactive) | 22.4 µM (inactive) | > 100 µM (inactive) | 36.5 µM (inactive) | > 100 µM (inactive) | 70 µM (inactive) | – | 42.2 µM (inactive) | 65.6 µM (inactive) | 41.2 µM (inactive) | – | – | – | > 100 µM (inactive) | > 100 µM (inactive) | 57.5 µM (inactive) | 89.7 µM (inactive) | > 100 µM (inactive) | > 100 µM (inactive)
5 | COC(=O)c1cc(C#Cc2cc(OC)ccc2OC)ccc1OC | – | – | – | – | 54.6 µM (inactive) | 60 µM (inactive) | > 100 µM (inactive) | 34.8 µM (inactive) | 43.5 µM (inactive) | 24.4 µM (inactive) | < 0.01 µM (active) | 31.1 µM (inactive) | 33.8 µM (inactive) | 75.7 µM (inactive) | 37.1 µM (inactive) | > 100 µM (inactive) | 30.3 µM (inactive) | – | 41.4 µM (inactive)
6 | O=[N+]([O-])c1ccc(CSC2=C(c3ccc(Cl)cc3)S/C(=C3\SC(SCc4ccc([N+](=O)[O-])cc4)=C(c4ccc(Cl)cc4)S3)S2)cc1 | > 100 µM (inactive) | > 100 µM (inactive) | > 100 µM (inactive) | > 100 µM (inactive) | > 100 µM (inactive) | > 100 µM (inactive) | > 100 µM (inactive) | > 100 µM (inactive) | > 100 µM (inactive) | > 100 µM (inactive) | > 100 µM (inactive) | – | – | > 100 µM (inactive) | > 100 µM (inactive) | > 100 µM (inactive) | > 100 µM (inactive) | > 100 µM (inactive) | > 100 µM (inactive)
7 | Cc1cc2c(=O)cc(-c3ccc(Cl)cc3Cl)oc2c(C(=O)O)c1C | > 100 µM (inactive) | > 100 µM (inactive) | – | > 100 µM (inactive) | > 100 µM (inactive) | > 100 µM (inactive) | > 100 µM (inactive) | > 100 µM (inactive) | > 100 µM (inactive) | > 100 µM (inactive) | > 100 µM (inactive) | – | > 100 µM (inactive) | > 100 µM (inactive) | > 100 µM (inactive) | > 100 µM (inactive) | – | – | > 100 µM (inactive)
8 | NS(=O)(=O)c1nnc(NS(=O)(=O)c2ccc(Cl)cc2)s1 | – | – | > 100 µM (inactive) | > 100 µM (inactive) | > 100 µM (inactive) | > 100 µM (inactive) | > 100 µM (inactive) | > 100 µM (inactive) | > 100 µM (inactive) | > 100 µM (inactive) | > 100 µM (inactive) | – | – | > 100 µM (inactive) | > 100 µM (inactive) | > 100 µM (inactive) | > 100 µM (inactive) | > 100 µM (inactive) | > 100 µM (inactive)
9 | COc1cc2c(c(O)c1OC)C(O)C1CCC(=O)N1C2c1ccc2c(c1)OCO2 (stereo unspecified) | > 100 µM (inactive) | > 100 µM (inactive) | > 100 µM (inactive) | > 100 µM (inactive) | > 100 µM (inactive) | > 100 µM (inactive) | > 100 µM (inactive) | > 100 µM (inactive) | – | – | > 100 µM (inactive) | > 100 µM (inactive) | 81.3 µM (inactive) | > 100 µM (inactive) | > 100 µM (inactive) | > 100 µM (inactive) | – | > 100 µM (inactive) | > 100 µM (inactive)
10 | Cc1ccc(S(=O)(=O)NC(=O)NC(Cc2ccc(O)c(O)c2)C(=O)O)cc1 (stereo unspecified) | 25.1 µM (inactive) | – | > 100 µM (inactive) | > 100 µM (inactive) | > 100 µM (inactive) | > 100 µM (inactive) | > 100 µM (inactive) | > 100 µM (inactive) | > 100 µM (inactive) | > 100 µM (inactive) | 37.1 µM (inactive) | > 100 µM (inactive) | – | 0.745 µM (active) | 81.8 µM (inactive) | > 100 µM (inactive) | > 100 µM (inactive) | > 100 µM (inactive) | > 100 µM (inactive)
11 | CN(C)CCCNC(=O)c1cc(NC(=O)c2cc(NC(=O)[C@H]3C[C@@H]3C(=O)Nc3cc(C(=O)Nc4cc(C(=O)NCCCN(C)C)n(C)c4)n(C)c3)cn2C)cn1C | > 100 µM (inactive) | > 100 µM (inactive) | > 100 µM (inactive) | > 100 µM (inactive) | > 10 µM (inactive) | > 100 µM (inactive) | > 100 µM (inactive) | > 100 µM (inactive) | > 100 µM (inactive) | > 100 µM (inactive) | > 100 µM (inactive) | > 100 µM (inactive) | > 100 µM (inactive) | > 100 µM (inactive) | > 100 µM (inactive) | – | – | > 100 µM (inactive) | > 100 µM (inactive)
12 | CC(Cn1c2c(c3cc(O)ccc31)CCc1ccc(O)cc1-2)N(C)C (stereo unspecified) | 53.3 µM (inactive) | 16.1 µM (inactive) | 15.6 µM (inactive) | 19.7 µM (inactive) | 18.7 µM (inactive) | 22.4 µM (inactive) | 19.3 µM (inactive) | 14.1 µM (inactive) | 16.4 µM (inactive) | – | 34.5 µM (inactive) | 64.1 µM (inactive) | 15.8 µM (inactive) | 20.7 µM (inactive) | 17.7 µM (inactive) | – | 18.8 µM (inactive) | – | 19.6 µM (inactive)
13 | C[n+]1ccc2/c(=C\C#N)c3ccccc3n21 | 20 µM (inactive) | – | 30.7 µM (inactive) | 29.7 µM (inactive) | 22 µM (inactive) | > 100 µM (inactive) | 37.3 µM (inactive) | 48.2 µM (inactive) | 30.8 µM (inactive) | 16.7 µM (inactive) | 61.2 µM (inactive) | 17.3 µM (inactive) | – | 32.2 µM (inactive) | 36.6 µM (inactive) | 23.1 µM (inactive) | 32.5 µM (inactive) | 15.8 µM (inactive) | 11.4 µM (inactive)
14 | CCn1c(-c2c(Cl)cc(O)cc2Cl)cc2c(Cl)cc(O)cc21 | 6.04 µM (inactive) | 3.24 µM (inactive) | 6.25 µM (inactive) | 4.26 µM (inactive) | 13.1 µM (inactive) | 6.14 µM (inactive) | 8.97 µM (inactive) | 6.05 µM (inactive) | 4.02 µM (inactive) | 3.21 µM (inactive) | 3.41 µM (inactive) | 3.43 µM (inactive) | 4.18 µM (inactive) | 2.88 µM (inactive) | 4.59 µM (inactive) | 2.3 µM (inactive) | – | 4.48 µM (inactive) | 7.78 µM (inactive)
15 | COc1cc(OC)c2c(O)c(S(=O)(=O)c3ccc(C)cc3)c(=O)oc2c1 | 78.2 µM (inactive) | > 100 µM (inactive) | – | 77.8 µM (inactive) | > 100 µM (inactive) | > 100 µM (inactive) | > 100 µM (inactive) | > 100 µM (inactive) | > 100 µM (inactive) | > 100 µM (inactive) | 69.5 µM (inactive) | > 100 µM (inactive) | > 100 µM (inactive) | > 100 µM (inactive) | > 100 µM (inactive) | > 100 µM (inactive) | – | > 100 µM (inactive) | > 100 µM (inactive)
16 | O=C1NC(Cc2c[nH]c3ccccc23)C(=O)N2C(C3CCCCC3)c3[nH]c4ccccc4c3C[C@@H]12 (stereo partly specified) | – | – | 18.2 µM (inactive) | 10.2 µM (inactive) | 8.15 µM (inactive) | 18.3 µM (inactive) | 20.7 µM (inactive) | 13.2 µM (inactive) | 14.4 µM (inactive) | 12.8 µM (inactive) | 10.8 µM (inactive) | 13.4 µM (inactive) | – | 13.1 µM (inactive) | 14.6 µM (inactive) | 16.4 µM (inactive) | 11.1 µM (inactive) | 24.3 µM (inactive) | 16.8 µM (inactive)

Reference: ChEMBL document CHEMBL1201862, “PubChem BioAssay data set” (2004)
